From PMC7291367, “Insightful Backbone Modifications Preventing Proteolytic Degradation of Neurotensin Analogs Improve NTS1-Induced Protective Hypothermia” (Frontiers in Chemistry, 2020)
“Also recorded” adds a separate entry of the source. Where two headings read alike, the source gives them in different places. Numbered stars: 1 amine (or outer) side, 2 acyl side, 3 side chain; on linkers, the order of the positions; unused ones are H or OH. Square brackets hold non-standard residues; d marks the D form. Peptide text beside a SMILES is read from it. X1 = NCCCC[C@H](N)CN([C@@H](CCCCN)C(=O)[*:2])[*:1]; Ala(SiMe3) = C[Si](C)(C)C[C@H](N)C(=O)O; Dmt = Cc1cc(O)cc(C)c1C[C@H](N)C(=O)O; Tle = CC(C)(C)[C@H](N)C(=O)O

Legend:
hNTS1 [1] = biological target: T1, hNTS1 (Homo sapiens, UniProt P30989); assay: Competitive radioligand binding assay, 125I-[Tyr3]-NT displacement, CHO-K1 cell membranes
Description: (§1) All media and additives are from Wisent (St-Bruno, QC). […] After 1 h of incubation at room temperature, the binding reaction mixture was transferred in polyethylenimine-coated 96-well-filter plates (Millipore, Billerica, MA). Reaction was terminated by filtration, and plates were washed three times with 200 μl of ice-cold binding buffer. […] Data were plotted using GraphPad Prism 8 using the One-site—Fit log (IC50) and represent the mean ± SEM of at least three separate experiments performed in triplicate.

hNTS1 [2] = biological target: T1, hNTS1; conditions: 2015, cited from earlier work
Sprague-Dawley rats = assay: Body temperature measurement after intrathecal injection; type: in vivo; conditions: rat; for effect on body temperature: compared to the saline-treated group; for Hypothermia ΔTemp: 30 μg/kg, i.t., change in body temperature from baseline at 60 min
Source text: The experimental procedures in this study were approved by the Animal Care Committee of the Université de Sherbrooke (protocol n°035-18B) and were in accordance with policies and directives of the Canadian Council on Animal Care. Adult male Sprague-Dawley rats, weighing 175–225 g (Charles River laboratories, St-Constant, Québec, Canada), were maintained on a 12-h light/dark cycle with free access to food and water and were housed two per cage on Aspen shavings in a quiet room.
Rats were lightly anesthetized with isoflurane/oxygen (Baxter corporation, Mississauga, ON, Canada; 2 L/min) flow and 25 μl of each compound were injected intrathecally with a 27-G 1/2 needle (BD PrecisionGlide, USA) into the subarachnoid space between vertebrae L5 and L6. Analogs 1–14 were diluted in physiological saline at 5 mg/ml, whereas compounds 15 and 16 were diluted in DMSO. For body temperature measurement, the injected solution of these both compounds contained 6% DMSO at final concentration (30 μg/kg).
Three consecutive days prior to testing, animals were individually acclimatized to manipulations and to a thermistor probe 5 min per day. The day of the test, experiments were always performed in a quiet room and between 8:00 and 12:00 PM. to reduce any variation related to the circadian rhythm. Body temperature was measured using a thermistor probe inserted into the rectum of adult Sprague-Dawley rats. Temperatures were recorded immediately before (baseline) and each 10 min for up to 60 min following intrathecal administration of saline, vehicle (6% DMSO) or NT analogs at 30 μg/kg. Changes in body temperature (Δ body temp) from baseline were determined for each animal. Data are expressed as mean ± SEM of 5 to 20 animals per condition.
Data are expressed as mean ± standard errors of the mean (SEM). All graphs and statistical analysis were performed using GraphPad Prism 8 (GraphPad software, La Jolla, CA, USA). A two-way ANOVA followed by Bonferroni's multiple comparisons test was used to determine significant differences between drug- and vehicle-treated rats at different timepoints post-injection.

hNTS2 [3] = biological target: T2, hNTS2 (Homo sapiens, UniProt O95665); assay: Competitive radioligand binding assay, 125I-[Tyr3]-NT displacement, 1321N1 cell membranes; conditions: ratio of Ki hNTS1 to Ki hNTS2
Description: as §1

hNTS2 [4] = biological target: T2, hNTS2; conditions: Ki values taken from the literature (Figure 1 legend) ref Fanelli et al., 2015; Eiselt et al., 2019; read-out: Binding, Ki hNTS2; cited from earlier work
[5] = Plasma stability assay (UPLC/MS); type: in vitro ADME; conditions: rat, plasma, 37°C, incubation up to 24 h
Description: Rat plasma was obtained from blood by keeping the translucent phase after centrifugation at 15,000 g over 5 min. Plasma stability assay was carried out by incubating each compound at different incubation times in rat plasma at a final concentration of 0.156 mM. […] Then, 70 μl of a solution containing 10% trichloroacetic acid (TCA) and 0.5% nicotinamine, an internal standard, was added to stop the degradation by proteases. After centrifugation at 15,000 g for 30 min, supernatant was filtered through 0.22-μm filter and analyzed by UPLC/MS (Water H Class Acquity UPLC, mounted with Acquity UPLC BEH C18 column, 1.7 μm, 2.1 × 50 mm and paired to a SQ Detector 2). Compounds 1, 2, and 5 were analyzed using the mass or UV spectrum. Quantification was done by determining the area under the curve (AUC) ratio of each compound over AUC of nicotinamine for each incubation time. Data were plotted into GraphPad Prism 8 and the half-life of each compound was calculated using one-phase decay fit and represented the mean ± SEM of minimum three separate experiments.

[6] = Ki values taken from the literature (Figure 1 legend) ref Fanelli et al., Eiselt et al., 2019, read-out: Binding, Ki hNTS1

T1 sequence (P30989 whole entry): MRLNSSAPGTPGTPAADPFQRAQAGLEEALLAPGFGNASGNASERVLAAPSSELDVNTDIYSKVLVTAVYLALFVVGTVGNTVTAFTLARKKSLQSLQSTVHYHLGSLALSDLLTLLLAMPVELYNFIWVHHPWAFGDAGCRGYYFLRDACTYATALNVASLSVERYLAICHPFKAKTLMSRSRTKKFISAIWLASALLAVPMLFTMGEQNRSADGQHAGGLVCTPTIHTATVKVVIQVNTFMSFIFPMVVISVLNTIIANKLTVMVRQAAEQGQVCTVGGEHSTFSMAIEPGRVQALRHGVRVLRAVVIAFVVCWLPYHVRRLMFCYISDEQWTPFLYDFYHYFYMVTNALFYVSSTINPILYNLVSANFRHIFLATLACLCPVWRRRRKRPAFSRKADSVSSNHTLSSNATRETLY
T2 sequence (O95665 whole entry): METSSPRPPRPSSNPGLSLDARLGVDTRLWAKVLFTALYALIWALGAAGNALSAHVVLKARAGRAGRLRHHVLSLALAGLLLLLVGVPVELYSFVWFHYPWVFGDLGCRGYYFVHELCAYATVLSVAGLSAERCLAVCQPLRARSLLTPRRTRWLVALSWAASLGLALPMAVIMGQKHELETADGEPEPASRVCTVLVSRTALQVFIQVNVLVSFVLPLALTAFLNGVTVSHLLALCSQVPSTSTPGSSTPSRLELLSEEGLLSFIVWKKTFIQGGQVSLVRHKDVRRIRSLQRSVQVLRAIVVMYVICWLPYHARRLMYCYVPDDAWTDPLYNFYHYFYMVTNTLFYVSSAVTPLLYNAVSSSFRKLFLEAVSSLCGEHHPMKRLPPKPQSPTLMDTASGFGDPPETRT

For `CC[C@H](C)[C@H](NC(=O)[C@H](Cc1ccc(O)cc1)NC(=O)[C@@H]1CCCN1C(=O)[C@H](CCCCN)NC(=O)[C@@H](N)CCCCN)C(=O)N[C@@H](C[Si](C)(C)C)C(=O)O` [Compound 3, H-Lys-Lys-Pro-Tyr-Ile-TMSAla-OH] (H-KKPYI[Ala(SiMe3)]-OH), the “fold increase in affinity at NTS1” value (hNTS1 [1]; compared to 1) is listed as 220 fold, the “fold increase in affinity at NTS1” value (hNTS1 [1]; compared to native NT(8-13)) is listed as 80 fold and the Ki (hNTS1 [2]; [6]) is listed as 0.018 ± 0.004 nM. The Ki (hNTS1 [2]; ref Fanelli et al., read-out: Ki NTS1) was about 0.02 nM, the “effect on body temperature” value (Sprague-Dawley rats; 30 μg/kg i.t.) was “not effective in reducing the body temperature; also recorded: not effective to induce drop in body temperature” and the “Hypothermia ΔTemp” value (Sprague-Dawley rats) was −0.07 ± 0.1 °C. The NTS1/NTS2 selectivity (hNTS2 [3]) was 0.1 and the Ki (hNTS2 [4]) was 0.25 ± 0.07 nM.

For `Cc1cc(O)cc(C)c1C[C@H](NC(=O)[C@@H]1CCCN1C(=O)[C@H](CCCCN)NC[C@@H](N)CCCCN)C(=O)N[C@H](C(=O)N[C@@H](CC(C)C)C(=O)O)C(C)(C)C` [Compound 16, H-Lysψ[CH2NH]Lys-Pro-Dmt-Tle-Leu-OH] (H-[X1]P[Dmt][Tle]L-OH), the Ki (hNTS1 [2]; [6]) is given as 110 ± 2 nM, the “effect on body temperature” value (Sprague-Dawley rats; 30 μg/kg i.t.) is given as “long-lasting hypothermia” and the “Hypothermia ΔTemp” value (Sprague-Dawley rats) is given as −2.0 ± 0.3 °C. The temperature drop (Sprague-Dawley rats; for up to 60 min, 30 μg/kg i.t.) was “more than 2 °C”, the NTS1/NTS2 selectivity (hNTS2 [3]) was 79 and the half-life at 0.156 mM [5] was over 20 h. For the same compound, the Ki (hNTS2 [4]) was 1.4 ± 0.5 nM.
